Tested on: cells attached to plastic surface
Test: detachment and removal of cells from plastic surface by cleaning solutions
Type: cell-based
Description: The first step with solution A: Solution A contains proteases. Proteases can be used to digest proteins attached to plastic surface. For example, trypsin can be used to release a cell layer from plastic dishes. An application of trypsin (pre-warmed at 37° C.) can lead the single cell layer to detach from the plastic bottom in a few minutes. When incubated at 30° C. (may be similar to the temperature of the part of catheters out of body), trypsin may detach heavy, multilayer cells from plastic surface in 30 min. Biofilm often contains multi-layers of cells can be digested and detach the layers of cells from plastic surface 30 min after trypsin incubation at 37° C.
The second step with solution B: While most of the cells may be detached by protease treatment (such as trypsin), a few cells may remain on the plastic surface, particularly when the incubation temperature is not at optimal digestive temperature (such as 37° C. for trypsin) as may happen for the part of catheters out of patients. Solution B may be used to continue the treatment for two purposes. Solution B contains high ion concentration that may reduce attachment of cell to plastic surface at room temperature. High ion concentration such as addition of 0.45M NaCl may also further reduce proteins binding to the surface (Ouyang et al., 1997). The second purpose is to deactivate remaining trypsin as a buffer without calcium and magnesium. […] Although it is not necessary to understand the mechanism of action of the current invention, it is believed that a higher concentration of saline solution (0.45M NaCl or above), similar to elution buffer for ion chromatography, helps to clean cells and/or proteins still attached to plastic due to charge of the ions.
The third step with solution C: After most of the bacterial and cells detach from plastic and wash away, 70% ethanol may be applied to kill possible bacterial remains and/or denature proteins still attached on the plastic surface. […]

trypsin
time to detach heavy, multilayer cells from plastic surface (incubated at 30° C.): 30 min | time to digest and detach layers of cells (biofilm multi-layers) from plastic surface (trypsin incubation at 37° C.): 30 min | time for single cell layer to detach from the plastic bottom (trypsin pre-warmed at 37° C.): a few minutes

Reference: patent US10441744B2, “Flushable catheter affixed to a wash line activated by a microfluidic pressure switch” (priority 2013, dated 2019)
